Two compounds from patent US11485726B2, “Compound for inhibiting and degrading tyrosine protein kinase ALK” (SHANGHAI MEIZER PHARMACEUTICALS CO., LTD., priority 2017, dated 2022) can be followed below.

In test [1] the target is T1, ALK kinase (Homo sapiens, UniProt Q9UM73). Put plainly: ALK protein degradation activity by Western blot in H2228 cells. Type of test: cell-based. Set-up: H2228 cell lines (human non-small cell line lung cancer cells, available from ATCC); host or cells: H2228 (human non-small cell lung cancer cells); the other entry of the earlier key: EML4 (Q9HC35, Echinoderm microtubule-associated protein-like 4). Conditions: NCI-H2228, compound 1 μM, treatment for 24 hours, degradation rate by Western blot.
Target sequence in this assay (Q9UM73 with tags, fused parts or gaps): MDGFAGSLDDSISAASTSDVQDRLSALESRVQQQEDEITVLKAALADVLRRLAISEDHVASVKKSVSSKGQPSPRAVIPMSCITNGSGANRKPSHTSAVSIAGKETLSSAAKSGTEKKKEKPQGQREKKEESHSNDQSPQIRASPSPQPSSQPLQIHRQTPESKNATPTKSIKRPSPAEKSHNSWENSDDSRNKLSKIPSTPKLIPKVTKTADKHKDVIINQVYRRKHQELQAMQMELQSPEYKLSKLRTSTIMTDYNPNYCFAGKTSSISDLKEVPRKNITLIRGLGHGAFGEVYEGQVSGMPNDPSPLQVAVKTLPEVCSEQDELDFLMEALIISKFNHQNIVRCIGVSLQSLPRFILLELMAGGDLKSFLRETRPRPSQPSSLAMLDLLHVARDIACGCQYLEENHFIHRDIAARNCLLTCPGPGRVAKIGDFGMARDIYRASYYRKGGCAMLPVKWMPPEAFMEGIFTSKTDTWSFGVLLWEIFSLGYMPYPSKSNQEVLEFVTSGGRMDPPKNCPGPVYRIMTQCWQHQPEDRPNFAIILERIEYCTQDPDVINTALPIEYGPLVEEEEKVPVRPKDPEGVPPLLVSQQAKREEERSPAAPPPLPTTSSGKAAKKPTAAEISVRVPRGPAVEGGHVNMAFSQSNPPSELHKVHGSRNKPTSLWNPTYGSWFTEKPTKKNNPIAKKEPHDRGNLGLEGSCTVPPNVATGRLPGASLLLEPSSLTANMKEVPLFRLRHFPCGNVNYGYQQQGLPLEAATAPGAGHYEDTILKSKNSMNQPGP

The target in test [2] is T1, ALK kinase. Put plainly: ALK inhibition activity by Caliper assay. Format: biochemical. Conditions: compound 100 nM. Here is the method: Example 5 Testing the ALK Inhibition Activity of Compound by Caliper Assay
The experimental steps were as follows:
Preparation of 1×kinase reaction buffer (50 mM HEPES, PH 7.5; 0.0015% Brij-35) and kinase reaction termination solution (100 mM HEPES, PH 7.5; 0.0015% Brij-35; 0.2% Coating Reagent; 50 mM EDTA);
Preparation of experimental samples: 100 μl of 5 μM sample solution (dissolved in 100% DMSO) was added to a 96-well plate to obtain a 50×sample solution. As controls, two wells containing only 100 μL of 100% DMSO were set on the same plate. One was served as a control without samples and the other was served as a control without enzymes. 10 μL of sample and 90 μL, of 1×kinase reaction buffer were added to a 96-well plate as a transfer plate. The transfer plate was shaken for 10 minutes.
Preparation of the test plate: taking 5 μL of each of the prepared samples from the 96-well transfer plate into a 384-well plate.
Kinase reaction: to 5 μL of 5×compound solution (dissolved in DMSO, diluted 10 times with water) was added 10 μL of 2.5×ALK kinase solution (kinase was diluted with 1×kinase reaction buffer), which was incubated at room temperature for 10 min, and then 10 μL of 2.5×substrate peptide solution (FAM-labeled peptide and ATP were diluted with 1×kinase reaction buffer) was added.
Termination of the kinase reaction: 25 μL of kinase reaction termination solution was added after being reacted at 28° C. for a period of time.
The fluorescence (F) was tested on a Caliper and data was collected.
The inhibition rate of kinase activity was calculated: the percent inhibition rate of kinase activity=(FDMSO control−Fsample)/(FDMSO control−Fnegative control)×100, with DMSO as the solution control, and no kinase as the negative control.
Target sequence in this assay (Q9UM73 19-1620): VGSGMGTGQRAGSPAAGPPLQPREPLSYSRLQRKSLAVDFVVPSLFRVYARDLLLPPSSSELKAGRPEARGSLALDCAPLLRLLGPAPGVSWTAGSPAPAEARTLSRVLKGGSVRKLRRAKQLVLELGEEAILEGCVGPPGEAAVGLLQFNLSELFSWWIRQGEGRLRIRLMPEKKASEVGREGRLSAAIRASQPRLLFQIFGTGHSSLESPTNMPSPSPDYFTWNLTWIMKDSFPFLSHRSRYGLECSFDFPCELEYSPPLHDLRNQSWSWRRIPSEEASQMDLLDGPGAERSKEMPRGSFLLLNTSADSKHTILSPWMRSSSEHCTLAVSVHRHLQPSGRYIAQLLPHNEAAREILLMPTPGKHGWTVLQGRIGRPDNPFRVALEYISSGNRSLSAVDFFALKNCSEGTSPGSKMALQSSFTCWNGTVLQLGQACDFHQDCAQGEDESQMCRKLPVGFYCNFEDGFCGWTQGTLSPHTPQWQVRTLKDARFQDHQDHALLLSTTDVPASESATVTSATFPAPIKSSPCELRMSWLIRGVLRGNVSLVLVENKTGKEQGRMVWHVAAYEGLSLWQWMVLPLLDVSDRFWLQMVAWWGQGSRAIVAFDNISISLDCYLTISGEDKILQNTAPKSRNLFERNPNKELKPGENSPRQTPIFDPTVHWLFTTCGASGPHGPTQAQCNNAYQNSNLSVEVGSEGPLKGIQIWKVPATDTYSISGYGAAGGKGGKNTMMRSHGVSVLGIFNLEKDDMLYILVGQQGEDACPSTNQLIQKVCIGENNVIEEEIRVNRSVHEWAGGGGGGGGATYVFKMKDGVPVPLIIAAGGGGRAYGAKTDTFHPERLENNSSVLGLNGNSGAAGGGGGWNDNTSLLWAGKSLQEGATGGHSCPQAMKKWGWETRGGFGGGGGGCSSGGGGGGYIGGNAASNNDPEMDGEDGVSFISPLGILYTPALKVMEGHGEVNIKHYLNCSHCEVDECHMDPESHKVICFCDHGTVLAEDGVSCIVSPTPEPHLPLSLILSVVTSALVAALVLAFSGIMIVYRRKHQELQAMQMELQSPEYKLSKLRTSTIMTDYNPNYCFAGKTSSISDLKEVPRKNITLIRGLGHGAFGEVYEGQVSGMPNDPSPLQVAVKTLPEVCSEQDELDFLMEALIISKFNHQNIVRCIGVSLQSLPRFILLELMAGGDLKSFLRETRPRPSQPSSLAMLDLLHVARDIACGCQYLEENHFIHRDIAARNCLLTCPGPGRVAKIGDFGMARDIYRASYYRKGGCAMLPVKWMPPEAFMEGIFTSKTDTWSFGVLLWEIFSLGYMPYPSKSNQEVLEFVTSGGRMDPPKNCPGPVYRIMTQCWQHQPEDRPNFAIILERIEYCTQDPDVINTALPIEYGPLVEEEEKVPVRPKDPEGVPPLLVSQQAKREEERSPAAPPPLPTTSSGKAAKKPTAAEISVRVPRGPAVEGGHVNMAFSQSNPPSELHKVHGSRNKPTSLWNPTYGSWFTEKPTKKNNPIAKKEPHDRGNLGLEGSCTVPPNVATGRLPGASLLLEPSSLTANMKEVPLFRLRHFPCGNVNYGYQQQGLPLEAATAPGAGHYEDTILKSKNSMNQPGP

In test [3] the test system is SU-DHL-1 cells. Put plainly: Inhibition of proliferation of SU-DHL-1 cells by CTG assay. Type of test: cell-based. Conditions: Homo sapiens, compound 100 μM, 72 hours. Here is the method:
Example 7 Testing the Inhibitory Effect of Formula Compound on the Proliferation of SU-DHL-1 Cells by CTG Assay
The inhibitory effect of the compound on the proliferation of SU-DHL-1 cells ([…]) was determined by the […] method in vitro. The Cells were cultured and the compound was prepared referring to the method of […], and the culture time after administration was 72 hours. Subsequently, an appropriate amount of CTG reagent was added, the luminescence value was measured, and the inhibition rate was calculated.

By inhibition is commonly meant how much of the control response was suppressed.

In the case of `Cc1cc(Nc2ncc(Cl)c(Nc3ccccc3S(=O)(=O)C(C)C)n2)c(OC(C)C)cc1C1CCN(CCOCCOCCOCCOc2cccc3c2C(=O)N(C2CCC(=O)NC2=O)C3=O)CC1` (stereo not drawn) [Compound 15], the inhibition at 1 µM in test [1] was greater than 90%. Moreover, the inhibition at 0.1 µM in test [2] was 95%. This compound returned an inhibition at 100 µM in test [3] of 100%.

In the case of `Cc1cc(Nc2ncc(Cl)c(Nc3ccccc3S(=O)(=O)C(C)C)n2)c(OC(C)C)cc1C1CCN(CCOCCOCCNc2cccc3c2C(=O)N(C2CCC(=O)NC2=O)C3=O)CC1` (stereo not drawn) [Compound 45], the inhibition at 1 µM in test [1] is greater than 90%. Moreover, in test [2], testing at 0.1 µM gave an inhibition of 98%. In addition, the inhibition at 100 µM in test [3] stood at 97%.
